PubChem BioAssay (NCI)
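All cell lines were grown in 96-well plates and treated with compound for 48 hours. TGI denotes the concentration required for complete inhibition of growth.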

Legend:
Assay in all cases: growth of human tumour cells (NCI), 48 h
[1] = test system: KM12 colon
[2] = test system: CCRF-CEM leukemia
[3] = test system: OVCAR-5 ovarian
[4] = test system: PC-3 prostate
[5] = test system: SNB-19 CNS
[6] = test system: HCT-15 colon
[7] = test system: HOP-62 NSCLC
[8] = test system: SK-MEL-28 melanoma
[9] = test system: MDA-MB-435
[10] = test system: BT-549 breast
[11] = test system: EKVX NSCLC
[12] = test system: MOLT-4 leukemia
[13] = test system: A498 renal
[14] = test system: HCC-2998 colon
[15] = test system: OVCAR-8 ovarian
[16] = test system: MDA-MB-231 breast
[17] = test system: IGROV1 ovarian
[18] = test system: HS 578T breast
[19] = test system: U251 CNS
[20] = test system: NCI-H226 lung
[21] = test system: HCT-116 colon
[22] = test system: HT29 colon
[23] = test system: RPMI-8226 leukemia
[24] = test system: SNB-75 CNS
[25] = test system: COLO 205 colon
[26] = test system: SK-MEL-2 melanoma
[27] = test system: TK-10 renal
[28] = test system: NCI-H23 lung
[29] = test system: MDA-N
[30] = test system: SF-268 CNS
[31] = test system: ACHN renal
[32] = test system: 786-0 renal
[33] = test system: A549 NSCLC
[34] = test system: NCI-H460 lung
[35] = test system: UACC-257 melanoma
[36] = test system: OVCAR-3 ovarian
[37] = test system: SK-MEL-5 melanoma
[38] = test system: SW-620 colon
[39] = test system: UO-31 renal
[40] = test system: M14 melanoma
[41] = test system: SR leukemia
[42] = test system: SF-295 CNS
[43] = test system: LOX IMVI melanoma
[44] = test system: K-562 leukemia
[45] = test system: HL-60(TB) leukemia
[46] = test system: T-47D breast
[47] = test system: HOP-92 NSCLC
[48] = test system: NCI/ADR-RES ovarian
[49] = test system: OVCAR-4 ovarian
[50] = test system: SN12C renal
[51] = test system: DU-145 prostate
[52] = test system: NCI-H522 lung
[53] = test system: SF-539 CNS
[54] = test system: MCF7 breast
[55] = test system: UACC-62 melanoma
[56] = test system: CAKI-1 renal
[57] = test system: SK-OV-3 ovarian
[58] = test system: MALME-3M melanoma
[59] = test system: RXF 393 renal

**Q.** `COc1cc2oc(=O)ccc2cc1C(=O)CC(C)C` was tested. Which TGI [1] did it give?
**A.** > 100 µM

**Q.** What about the TGI [2] of the same compound?
**A.** > 100 µM

**Q.** What about the TGI [3] of the same compound?
**A.** > 100 µM

**Q.** What about the TGI [4] of the same compound?
**A.** > 100 µM

**Q.** What about the TGI [5] of the same compound?
**A.** > 100 µM

**Q.** And the TGI [6]?
**A.** > 100 µM

**Q.** What about the TGI [7] of the same compound?
**A.** > 100 µM

**Q.** And the TGI [8]?
**A.** > 100 µM

**Q.** What about the TGI [9] of the same compound?
**A.** > 100 µM

**Q.** What about the TGI [10] of the same compound?
**A.** > 100 µM

**Q.** What about the TGI [11] of the same compound?
**A.** > 100 µM

**Q.** What about the TGI [12] of the same compound?
**A.** > 100 µM

**Q.** And the TGI [13]?
**A.** > 100 µM

**Q.** And the TGI [14]?
**A.** > 100 µM

**Q.** And the TGI [15]?
**A.** > 100 µM

**Q.** What about the TGI [16] of the same compound?
**A.** > 100 µM

**Q.** And the TGI [17]?
**A.** > 100 µM

**Q.** And the TGI [18]?
**A.** > 100 µM

**Q.** And the TGI [19]?
**A.** > 100 µM

**Q.** And the TGI [20]?
**A.** > 100 µM

**Q.** And the TGI [21]?
**A.** > 100 µM

**Q.** And the TGI [22]?
**A.** > 100 µM

**Q.** What about the TGI [23] of the same compound?
**A.** > 100 µM

**Q.** What about the TGI [24] of the same compound?
**A.** > 100 µM

**Q.** And the TGI [25]?
**A.** > 100 µM

**Q.** What about the TGI [26] of the same compound?
**A.** > 100 µM

**Q.** And the TGI [27]?
**A.** > 100 µM

**Q.** And the TGI [28]?
**A.** > 100 µM

**Q.** What about the TGI [29] of the same compound?
**A.** > 100 µM

**Q.** What about the TGI [30] of the same compound?
**A.** > 100 µM

**Q.** What about the TGI [31] of the same compound?
**A.** > 100 µM

**Q.** And the TGI [32]?
**A.** > 100 µM

**Q.** What about the TGI [33] of the same compound?
**A.** > 100 µM

**Q.** And the TGI [34]?
**A.** > 100 µM

**Q.** What about the TGI [35] of the same compound?
**A.** > 100 µM

**Q.** And the TGI [36]?
**A.** > 100 µM

**Q.** And the TGI [37]?
**A.** > 100 µM

**Q.** What about the TGI [38] of the same compound?
**A.** > 100 µM

**Q.** What about the TGI [39] of the same compound?
**A.** > 100 µM

**Q.** What about the TGI [40] of the same compound?
**A.** > 100 µM

**Q.** What about the TGI [41] of the same compound?
**A.** > 100 µM

**Q.** What about the TGI [42] of the same compound?
**A.** > 100 µM

**Q.** And the TGI [43]?
**A.** > 100 µM

**Q.** And the TGI [44]?
**A.** > 100 µM

**Q.** What about the TGI [45] of the same compound?
**A.** > 100 µM

**Q.** And the TGI [46]?
**A.** > 100 µM

**Q.** And the TGI [47]?
**A.** > 100 µM

**Q.** What about the TGI [48] of the same compound?
**A.** > 100 µM

**Q.** And the TGI [49]?
**A.** > 100 µM

**Q.** And the TGI [50]?
**A.** > 100 µM

**Q.** What about the TGI [51] of the same compound?
**A.** > 100 µM

**Q.** And the TGI [52]?
**A.** 56.4 µM

**Q.** What about the TGI [53] of the same compound?
**A.** > 100 µM

**Q.** And the TGI [54]?
**A.** > 100 µM

**Q.** And the TGI [55]?
**A.** > 100 µM

**Q.** And the TGI [56]?
**A.** 42.8 µM

**Q.** And the TGI [57]?
**A.** > 100 µM

**Q.** What does the source list for `NC1=CN(CCCO)C2=N/C(=C\c3ccccc3)C(=O)N12`?
**A.** TGI [1]: > 100 µM; TGI [2]: > 100 µM; TGI [3]: > 100 µM; TGI [4]: > 100 µM; TGI [5]: > 100 µM; TGI [6]: > 100 µM; TGI [7]: > 100 µM; TGI [8]: > 100 µM; TGI [9]: > 100 µM; TGI [10]: > 100 µM; TGI [11]: > 100 µM; TGI [12]: > 100 µM; TGI [13]: > 100 µM; TGI [14]: > 100 µM; TGI [15]: > 100 µM; TGI [16]: > 100 µM; TGI [17]: > 100 µM; TGI [18]: > 100 µM; TGI [19]: > 100 µM; TGI [20]: > 100 µM; TGI [21]: > 100 µM; TGI [22]: > 100 µM; TGI [23]: > 100 µM; TGI [24]: > 100 µM; TGI [25]: > 100 µM; TGI [26]: > 100 µM; TGI [27]: > 100 µM; TGI [28]: > 100 µM; TGI [29]: > 100 µM; TGI [30]: > 100 µM; TGI [31]: > 100 µM; TGI [32]: > 100 µM; TGI [33]: > 100 µM; TGI [34]: > 100 µM; TGI [35]: > 100 µM; TGI [58]: > 100 µM; TGI [36]: > 100 µM; TGI [37]: > 100 µM; TGI [38]: > 100 µM; TGI [39]: > 100 µM; TGI [40]: > 100 µM; TGI [42]: > 100 µM; TGI [43]: > 100 µM; TGI [44]: > 100 µM; TGI [45]: > 100 µM; TGI [46]: > 100 µM; TGI [47]: > 100 µM; TGI [48]: > 100 µM; TGI [49]: > 100 µM; TGI [50]: > 100 µM; TGI [51]: > 100 µM; TGI [52]: > 100 µM; TGI [53]: > 100 µM; TGI [54]: > 100 µM; TGI [55]: > 100 µM; TGI [59]: > 100 µM; TGI [56]: > 100 µM; TGI [57]: > 100 µM
